# Assay results from article PMC10006169, “A phase I trial of LXS196, a protein kinase C (PKC) inhibitor, for metastatic uveal melanoma” (British Journal of Cancer, 2023).
# Like-named read-outs stand apart in the source and are kept apart here.
# Assay: Plasma pharmacokinetics (LC-MS/MS)
# Assay type: in vivo, human
# Settings: for AUC(0-inf) / half-life / AUC(0-t) / Cmax: human, plasma, oral, 100 mg, C1D1, 100 mg QD
# Procedure: In the dose escalation part of the study, PK samples were collected at various pre- and post-dose time points on C1D1, D2, D3, D15 and D16. Drug concentrations were assessed using a validated liquid chromatography-tandem mass spectrometry assay.
compound,measurement,setting,value
CC1(N)CCN(c2cccnc2NC(=O)c2nc(-c3ncccc3C(F)(F)F)cnc2N)CC1 [LXS196],Increase in exposure (AUC0–t and Cmax) with dose,"C1D1 and D15, QD and BID",under-proportional
same,"Racc (accumulation ratio), Geo-mean","C1D15, 100 mg QD, n=2",1.2
same,"Racc (accumulation ratio), Mean (SD)","C1D15, 100 mg QD, n=2",1.27 (0.570)
same,"Racc (accumulation ratio), Median (Min, max)","C1D15, 100 mg QD, n=2","1.27 (0.867, 1.67)"
same,"Cmin, Geo-mean","C1D15, 100 mg QD, n=3",137 ng/mL
same,"Cmin, Mean (SD)","C1D15, 100 mg QD, n=3",144 (58.0) ng/mL
same,"Cmin, Geo-mean","C1D15, 200 mg BID, n=5",705 ng/mL
same,"Cmin, Mean (SD)","C1D15, 200 mg BID, n=5",787 (376) ng/mL
same,"Racc (accumulation ratio), Geo-mean","C1D15, 200 mg BID, n=5",0.989
same,"Racc (accumulation ratio), Mean (SD)","C1D15, 200 mg BID, n=5",1.11 (0.611)
same,"Racc (accumulation ratio), Median (Min, max)","C1D15, 200 mg BID, n=5","0.852 (0.539, 2.00)"
same,"Racc (accumulation ratio), Geo-mean","C1D15, 200 mg QD, n=2",0.743
same,"Racc (accumulation ratio), Mean (SD)","C1D15, 200 mg QD, n=2",0.750 (0.145)
same,"Racc (accumulation ratio), Median (Min, max)","C1D15, 200 mg QD, n=2","0.75 (0.647, 0.852)"
same,"Cmin, Geo-mean","C1D15, 200 mg QD, n=3",134 ng/mL
same,"Cmin, Mean (SD)","C1D15, 200 mg QD, n=3",143 (59.2) ng/mL
same,"Racc (accumulation ratio), Geo-mean","C1D15, 300 mg BID, n=12",1.09
same,"Racc (accumulation ratio), Mean (SD)","C1D15, 300 mg BID, n=12",1.15 (0.403)
same,"Racc (accumulation ratio), Median (Min, max)","C1D15, 300 mg BID, n=12","1.07 (0.549, 1.98)"
same,"Cmin, Geo-mean","C1D15, 300 mg BID, n=17",912 ng/mL
same,"Cmin, Mean (SD)","C1D15, 300 mg BID, n=17",1040 (462) ng/mL
same,"Cmin, Median (Min, max)","C1D15, 300 mg BID, n=17","1070 (155, 2100) ng/mL"
same,"Racc (accumulation ratio), Geo-mean","C1D15, 300 mg QD, n=13",0.895
same,"Racc (accumulation ratio), Mean (SD)","C1D15, 300 mg QD, n=13",0.934 (0.307)
same,"Racc (accumulation ratio), Median (Min, max)","C1D15, 300 mg QD, n=13","0.838 (0.577, 1.72)"
same,"Cmin, Geo-mean","C1D15, 300 mg QD, n=14",344 ng/mL
same,"Cmin, Mean (SD)","C1D15, 300 mg QD, n=14",426 (319) ng/mL
same,"Racc (accumulation ratio), Geo-mean","C1D15, 400 mg BID, n=3",0.721
same,"Racc (accumulation ratio), Mean (SD)","C1D15, 400 mg BID, n=3",0.738 (0.204)
same,"Racc (accumulation ratio), Median (Min, max)","C1D15, 400 mg BID, n=3","0.643 (0.599, 0.972)"
same,"Cmin, Geo-mean","C1D15, 400 mg BID, n=4",627 ng/mL
same,"Cmin, Mean (SD)","C1D15, 400 mg BID, n=4",647 (194) ng/mL
same,"Cmin, Median (Min, max)","C1D15, 400 mg BID, n=4","608 (464, 909) ng/mL"
same,"Racc (accumulation ratio), Geo-mean","C1D15, 500 mg QD, n=8",0.767
same,"Racc (accumulation ratio), Mean (SD)","C1D15, 500 mg QD, n=8",0.793 (0.214)
same,"Racc (accumulation ratio), Median (Min, max)","C1D15, 500 mg QD, n=8","0.768 (0.484, 1.11)"
same,"Cmin, Geo-mean","C1D15, 500 mg QD, n=9",622 ng/mL
same,"Cmin, Mean (SD)","C1D15, 500 mg QD, n=9",660 (234) ng/mL
same,"Cmin, Geo-mean","C1D15, 1000 mg QD, n=2",673 ng/mL
same,"Cmin, Mean (SD)","C1D15, 1000 mg QD, n=2",674 (10.6) ng/mL
same,"Racc (accumulation ratio), Geo-mean","C1D15, 1000 mg QD, n=2",0.709
same,"Racc (accumulation ratio), Mean (SD)","C1D15, 1000 mg QD, n=2",0.718 (0.161)
same,"Racc (accumulation ratio), Median (Min, max)","C1D15, 1000 mg QD, n=2","0.718 (0.604, 0.832)"
same,PK variability (CV% for Cmax and AUC0–t),between-patient,moderate
same,AUC(0-inf),"n=2, read-out: AUCinf, Geo-mean",8560 ng·h/mL
same,AUC(0-inf),"n=2, read-out: AUCinf, Mean (SD)",8640 ng·h/mL
same,AUC(0-inf),"n=2, read-out: AUCinf, Median (Min, max)",8640 ng·h/mL
same,half-life,"n=2, read-out: T1/2, Geo-mean (converted)",8.43 h
same,half-life,"n=2, read-out: T1/2, Mean (SD) (converted)",8.49 h
same,half-life,"n=2, read-out: T1/2, Median (Min, max) (converted)",8.49 h
same,AUC(0-t),"n=3, read-out: AUC0-t, Geo-mean",8440 ng·h/mL
same,AUC(0-t),"n=3, read-out: AUC0-t, Mean (SD)",8670 ng·h/mL
same,AUC(0-t),"n=3, read-out: AUC0-t, Median (Min, max)",8020 ng·h/mL
same,Cmax,"n=3, read-out: Cmax, Geo-mean",774 ng/mL
same,Cmax,"n=3, read-out: Cmax, Mean (SD)",776 ng/mL
same,Cmax,"n=3, read-out: Cmax, Median (Min, max)",811 ng/mL
